The values below come from patent publication US10954214B2 (Janssen Pharmaceutica NV, priority 2016, dated 2021).

The test system of experiment [1] is IL6 secretion by OCI-LY3 ABC-DLBCL cells. Nature of the experiment: Human IL6 Mesoscale assay (OCI-LY3). Type of experiment: cell-based. The conditions noted are these: Homo sapiens, 24 h. Put shortly:
(§1)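 TMD8 or OCI-LY3 cells (100,000/well) were exposed to compounds in 9 twofold dilutions from 15 μM to 58.6 nM (0.3% DMSO) for 24 h at 37 °C. Supernatant IL6 and IL10 were quantified by MSD electrochemiluminescence immunoassay. DMSO defined maximum signal and BTK inhibitor RN486 (30 nM–131 pM) defined maximum inhibition.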

Experiment [2] has as its system IL6 secretion by TMD8 ABC-DLBCL cells. The experiment in a line: Human IL6 Mesoscale assay (TMD-8). The class given is cell-based. To be noted: Homo sapiens, TMD8; TMD-8 cells, 24 h. In outline: as §1
The target in experiment [3] is full-length MALT1 protein (Strep-MALT1(1-824)-His) (Homo sapiens (Human), UniProt Q9UDY8). The experiment in a line: MALT1 Biochemical Protease Assay (Ac-LRSR-AMC substrate). To be noted: 10 nM FL MALT1, 200 μM Ac-LRSR-AMC, 4 h at RT; read-out: MALT1_Biochemical activity (Ac-LRSR-amc) IC50. Put shortly: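 Fluorescence from AMC release off the quenched LRSR substrate was read after a 4 h reaction at RT. Values were normalised to no-enzyme and uninhibited controls and fitted for IC50 and Hill coefficient.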
Sequence of full-length MALT1 protein (Strep-MALT1(1-824)-His) (Q9UDY8 whole entry): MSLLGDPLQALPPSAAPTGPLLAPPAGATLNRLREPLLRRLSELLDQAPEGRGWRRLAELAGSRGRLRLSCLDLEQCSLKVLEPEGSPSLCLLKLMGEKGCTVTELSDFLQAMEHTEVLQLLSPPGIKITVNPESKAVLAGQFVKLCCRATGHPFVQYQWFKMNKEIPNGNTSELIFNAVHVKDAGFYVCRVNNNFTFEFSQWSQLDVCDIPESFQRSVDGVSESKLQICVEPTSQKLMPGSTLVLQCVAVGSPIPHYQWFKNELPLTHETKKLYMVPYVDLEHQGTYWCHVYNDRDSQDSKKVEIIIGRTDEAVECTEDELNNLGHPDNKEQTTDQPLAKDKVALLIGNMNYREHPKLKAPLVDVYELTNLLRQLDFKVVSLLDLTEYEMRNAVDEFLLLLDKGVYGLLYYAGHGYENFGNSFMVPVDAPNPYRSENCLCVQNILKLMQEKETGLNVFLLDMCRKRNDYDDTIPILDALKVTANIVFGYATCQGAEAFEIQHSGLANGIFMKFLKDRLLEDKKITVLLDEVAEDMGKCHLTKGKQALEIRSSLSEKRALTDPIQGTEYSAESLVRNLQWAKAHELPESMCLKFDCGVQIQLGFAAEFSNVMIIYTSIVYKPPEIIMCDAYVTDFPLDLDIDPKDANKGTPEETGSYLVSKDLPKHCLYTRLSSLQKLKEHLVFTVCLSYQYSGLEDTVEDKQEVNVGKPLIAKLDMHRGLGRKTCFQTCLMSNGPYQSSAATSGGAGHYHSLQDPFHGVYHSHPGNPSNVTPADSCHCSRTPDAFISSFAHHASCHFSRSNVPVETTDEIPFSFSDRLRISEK

In experiment [4] the test system is IL10 secretion by OCI-LY3 ABC-DLBCL cells. Nature of the experiment: Human IL10 Mesoscale assay (OCI-LY3). To be noted: Homo sapiens, 24 h. Type of experiment: cell-based. Put shortly: as §1
In experiment [5] the test system is IL10 secretion by TMD8 ABC-DLBCL cells. The experiment in a line: Human IL10 Mesoscale assay (TMD-8). The class given is cell-based. To be noted: Homo sapiens, TMD8; TMD-8 cells, 24 h. Put shortly:
as §1

What is called IC50 is the point on the concentration scale where inhibition reaches its midpoint.

With `O=C(Nc1cnc(-n2nccn2)c(Cl)c1)c1cnn(-c2cccc3nc(F)ccc23)c1C(F)(F)F` [Cpd 277, N-(5-chloro-6-(2H-1,2,3-triazol-2-yl)pyridin-3-yl)-1-(2-fluoroquinolin-5-yl)-5-(trifluoromethyl)-1H-pyrazole-4-carboxamide], the IC50 in experiment [1] was 89 nM; in experiment [2], 170 nM; in experiment [3] it was 132 nM; in experiment [4], 87 nM; in experiment [5], 95 nM.

On to `Cc1nc(-n2cccn2)c(Cl)cc1NC(=O)c1cnn(-c2cccc3nnsc23)c1C(F)(F)F` [Cpd 303, 1-(benzo[d][1,2,3]thiadiazol-7-yl)-N-(5-chloro-2-methyl-6-(1H-pyrazol-1-yl)pyridin-3-yl)-5-(trifluoromethyl)-1H-pyrazole-4-carboxamide], for which the half-inhibitory concentration (IC50) in experiment [1] came out at 251 nM; in experiment [2], 234 nM; in experiment [3], 282 nM; in experiment [4] it was 275 nM; in experiment [5], 174 nM.

Regarding `CN(C)c1ncc(-n2ncc(C(=O)Nc3cnc(-n4nccn4)c(Cl)c3)c2C(F)(F)F)c2ccccc12` [Cpd 322, N-(5-chloro-6-(2H-1,2,3-triazol-2-yl)pyridin-3-yl)-1-(1-(dimethylamino)isoquinolin-4-yl)-5-(trifluoromethyl)-1H-pyrazole-4-carboxamide], the IC50 in experiment [1] stood at 148 nM; in experiment [2] it was 562 nM; in experiment [3], 214 nM; in experiment [4], 135 nM; in experiment [5], 708 nM.

`O=C1COC(c2ncc(-n3ncc(C(=O)Nc4cnc(-n5nccn5)c(Cl)c4)c3C(F)(F)F)c3ccccc23)C1` (centres unmarked) [Cpd 370, N-(5-chloro-6-(2H-1,2,3-triazol-2-yl)pyridin-3-yl)-1-(1-(4-oxotetrahydrofuran-2-yl)isoquinolin-4-yl)-5-(trifluoromethyl)-1H-pyrazole-4-carboxamide]: the IC50 stood at 13 nM in experiment [1]; 54 nM in experiment [2]; 107 nM in experiment [3]; 10 nM in experiment [4]; 46 nM in experiment [5].

For `CC(O)c1ncc(-n2ncc(C(=O)Nc3cnc(-n4nccn4)c(Cl)c3)c2C(F)(F)F)c2ccccc12` (centres unmarked) [Cpd 371, N-(5-chloro-6-(2H-1,2,3-triazol-2-yl)pyridin-3-yl)-1-(1-(1-hydroxyethyl)isoquinolin-4-yl)-5-(trifluoromethyl)-1H-pyrazole-4-carboxamide], the half-inhibitory concentration (IC50) in experiment [1] is 18 nM; in experiment [2], 13 nM; in experiment [3], 69 nM; in experiment [4] it was 18 nM; in experiment [5], 25 nM.

Turning to `CC(C)(C)OC(=O)N1CCC1c1nccc2c(-n3ncc(C(=O)Nc4cnc(-n5nccn5)c(Cl)c4)c3C(F)(F)F)cccc12` (centres unmarked) [Cpd 383, tert-butyl 2-(5-(4-((5-chloro-6-(2H-1,2,3-triazol-2-yl)pyridin-3-yl)carbamoyl)-5-(trifluoromethyl)-1H-pyrazol-1-yl)isoquinolin-1-yl)azetidine-1-carboxylate], the IC50 stood at 27 nM in experiment [1]; 95 nM in experiment [2]; 10000 nM in experiment [3]; 36 nM in experiment [4]; 105 nM in experiment [5].

Take `O=C(Nc1cnc(-n2nccn2)c(Cl)c1)c1cnn(-c2cccc3c(C4CCN4)nccc23)c1C(F)(F)F` (centres unmarked) [Cpd 384, 1-(1-(azetidin-2-yl)isoquinolin-5-yl)-N-(5-chloro-6-(2H-1,2,3-triazol-2-yl)pyridin-3-yl)-5-(trifluoromethyl)-1H-pyrazole-4-carboxamide]: the IC50 in experiment [1] worked out at 18 nM; in experiment [2], 120 nM; in experiment [3], 5890 nM; in experiment [4], 14 nM; in experiment [5], 123 nM.
